Measured values published in ChEMBL document CHEMBL3603820, “Discovery of a novel 2,3,11,11a-tetrahydro-1H-pyrazino[1,2-b]isoquinoline-1,4(6H)-dione series promoting neurogenesis of human neural progenitor cells” (Bioorg Med Chem Lett, 2015).
The source made the active and inactive calls. No cut-off for these calls is given here.

Tests used:
Neuronal progenitor cell [1] = test: (§1) Induction of neurogenesis in human H9-derived neuronal progenitor cells at 10 uM assessed as increase in Tuj1 positive cells; assay type: functional
[2] = as §1; assay type: functional, Neuronal progenitor cell
Brain [3] = test: Drug concentration in C57BL/6 mouse brain at 13.4 mg/kg, ip; assay type: ADME, organism-based; details: in vivo, read-out: Drug uptake
[4] = Cmax in C57BL/6 mouse brain at 1.81 mg/kg, po; assay type: ADME, organism-based; set-up: dose 1.81 mg/kg, route oral
Plasma [5] = test: Dose normalized AUC in C57BL/6 mouse plasma at 13.4 mg/kg, ip; assay type: ADME, organism-based; details: in vivo
Mus musculus [6] = test: Induction of neurogenesis in C57BL/6 mouse assessed as increase in BrdU+NeuN+/BrdU+ cells in dentate gyrus at 8.5 mg/kg, ip qd for 7 days and measured on day 14 by immunohistochemistry relative to control; assay type: functional
[7] = Ratio of drug level in brain to plasma in C57BL/6 mouse at 1.81 mg/kg, po; assay type: ADME, organism-based; details: read-out: BPR
[8] = AUC (0 to t) in C57BL/6 mouse plasma at 1.81 mg/kg, po; assay type: ADME, organism-based
[9] = AUC (0 to t) in C57BL/6 mouse plasma at 13.4 mg/kg, ip; assay type: ADME, organism-based
[10] = Tmax in C57BL/6 mouse plasma at 1.81 mg/kg, po; assay type: ADME, organism-based
Plasma [11] = test: Plasma concentration in C57BL/6 mouse at 13.4 mg/kg, ip; assay type: ADME, organism-based; details: in vivo
[12] = Tmax in C57BL/6 mouse plasma at 13.4 mg/kg, ip; assay type: ADME, organism-based
[13] = AUC (0 to t) in C57BL/6 mouse brain at 1.81 mg/kg, po; assay type: ADME, organism-based
Mus musculus [14] = test: Induction of neurogenesis in C57BL/6 mouse assessed as increase in BrdU+NeuN+/BrdU+ cells in dentate gyrus at 8.5 mg/kg, ip qd for 7 days and measured on day 14 by immunohistochemistry relative to vehicle control; assay type: functional
[15] = Tmax in C57BL/6 mouse brain at 1.81 mg/kg, po; assay type: ADME, organism-based
[16] = Unbound fraction in C57BL/6 mouse brain; assay type: ADME, tissue-based; details: brain tissue
Plasma [17] = test: Dose normalized AUC in C57BL/6 mouse plasma at 1.81 mg/kg, po; assay type: ADME, organism-based; details: in vivo
[18] = Cmax in C57BL/6 mouse plasma at 1.81 mg/kg, po; assay type: ADME, organism-based; set-up: dose 1.81 mg/kg, route oral
[19] = Cmax in C57BL/6 mouse plasma at 13.4 mg/kg, ip; assay type: ADME, organism-based; set-up: dose 13.4 mg/kg, route intraperitoneal
Brain [20] = test: Dose normalized AUC in C57BL/6 mouse brain at 1.81 mg/kg, po; assay type: ADME, organism-based; details: in vivo
[21] = Half life in C57BL/6 mouse plasma at 13.4 mg/kg, ip; assay type: ADME, organism-based
[22] = Induction of neurogenesis in mouse neuronal progenitor cells at 0.1 to 10 uM assessed as increase in Tuj1 positive cells; assay type: functional, Neuronal progenitor cell
[23] = Toxicity in mouse neuronal progenitor cells at 0.1 to 10 uM assessed as increase in DAPI positive cells; assay type: cell-based; details: neuronal progenitor cell
[24] = Ratio of drug level in brain to plasma in mouse; assay type: ADME, organism-based; details: read-out: BPR
Neuronal progenitor cell [25] = test: Induction of neurogenesis in human H9-derived neuronal progenitor cells at 0.3125 to 10 uM assessed as increase in Tuj1 protein levels incubated for 5 days by Western blotting method; assay type: functional
[26] = Toxicity in human H9-derived neuronal progenitor cells at 0.1 to 10 uM assessed as increase in DAPI positive cells; assay type: cell-based; details: neuronal progenitor cell
[27] = Induction of neurogenesis in human H9-derived neuronal progenitor cells at 0.1 to 10 uM assessed as increase in Tuj1 positive cells; assay type: functional, Neuronal progenitor cell

N#Cc1cccc(COc2ccc3c(c2)CN2C(=O)CN(C4CCN(CC(F)(F)F)CC4)C(=O)[C@H]2C3)c1
fold change (FC) (Neuronal progenitor cell [1]): inactive

CCOC(=O)C[C@H]1CC[C@H](N2CC(=O)N3Cc4cc(OCc5cccc(C#N)c5)ccc4C[C@@H]3C2=O)CC1
fold change (FC) [2]: 1.69

CCNC(=O)c1cccc(COc2ccc3c(c2)CN2C(=O)CN(C4CCCC4)C(=O)[C@H]2C3)c1
fold change (FC) [2]: 1.65

N#Cc1cccc(COc2ccc3c(c2)CN2C(=O)CN(C4CCN(CCF)CC4)C(=O)[C@H]2C3)c1
fold change (FC) [2]: 1.91

O=C1[C@H]2Cc3ccc(OCc4cccc(Cl)c4)cc3CN2C(=O)CN1C1CCCC1
fold change (FC) [2]: 2.29

COC[C@H]1C(=O)N2Cc3cc(OCc4cccc(C#N)c4)ccc3C[C@@H]2C(=O)N1C1CCCC1
fold change (FC) [2]: 1.55

N#Cc1cccc(COc2ccc3c(c2)CN2C(=O)CN(CC4CC4)C(=O)[C@H]2C3)c1
fold change (FC) [2]: 1.57

N#Cc1cccc(OCc2ccc3c(c2)CN2C(=O)CN(C4CCCC4)C(=O)[C@H]2C3)c1
fold change (FC) [2]: 2

CCN(Cc1cccc(C#N)c1)c1ccc2c(c1)CN1C(=O)CN(C3CCCCC3)C(=O)[C@H]1C2
fold change (FC) [2]: 1.45

C[C@H]1C(=O)N2Cc3cc(OCc4cccc(C#N)c4)ccc3C[C@@H]2C(=O)N1C1CCCC1
fold change (FC) [2]: 1.98

N#Cc1cccc(COc2ccc3c(c2)CN2C(=O)CN(C4CCCCC4)C(=O)[C@H]2C3)c1
fold change (FC) [2]: 2.02

N#Cc1cccc(COc2ccc3c(c2)CN2C(=O)CN(C4CCCC4)C(=O)[C@@H]2C3)c1
fold change (FC) (Neuronal progenitor cell [1]): inactive

N#Cc1cccc(COc2ccc3c(c2)CN2C(=O)[C@H](CO)N(C4CCCC4)C(=O)[C@H]2C3)c1
fold change (FC) (Neuronal progenitor cell [1]): inactive

O=C1[C@H]2Cc3ccc(OCc4ccccc4)cc3CN2C(=O)CN1C1CCCC1
fold change (FC) [2]: 2.07

COC[C@@H]1C(=O)N2Cc3cc(OCc4cccc(C#N)c4)ccc3C[C@@H]2C(=O)N1C1CCCC1
fold change (FC) [2]: 2.36

N#Cc1cccc(COc2ccc3c(c2)CN2C(=O)CN(C4CCCC4)C(=O)[C@H]2C3)c1
concentration (Brain [3]): 6.1 µM | Cmax [4]: 92 ng/mL | AUC/dose (Plasma [5]): 794 ng·h/mL/mg/kg | fold change (FC) (Mus musculus [6]): 1.3 | Kp [7]: 0.1 | AUC(0-t) [8]: 534 ng·h/mL | AUC(0-t) [9]: 10500 ng·h/mL | Tmax [10]: 1 h | concentration (Plasma [11]): 8.4 µM | Tmax [12]: 0.25 h | AUC(0-t) [13]: 280 ng·h/mL | Activity (Mus musculus [14]): 11.7% | Tmax [15]: 1 h | fraction unbound [16]: 0.02 | AUC/dose (Plasma [17]): 296 ng·h/mL/mg/kg | Cmax [18]: 126 ng/mL | Cmax [19]: 3500 ng/mL | AUC/dose (Brain [20]): 155 ng·h/mL/mg/kg | fold change (FC) [2]: 2.35 | half-life [21]: 4.95 h

N#Cc1cccc(COc2ccc3c(c2)CN2C(=O)CN(C4CCN(CC(F)F)CC4)C(=O)[C@H]2C3)c1
fold change (FC) (Neuronal progenitor cell [1]): inactive

N#Cc1cccc(COc2ccc3c(c2)CN2C(=O)CN(C4CCNCC4(F)F)C(=O)[C@H]2C3)c1 (stereo not given in full)
fold change (FC) [2]: 1.78

N#Cc1cccc(COc2ccc3c(c2)CN2C(=O)CN(C4CCOCC4)C(=O)[C@H]2C3)c1
fold change (FC) (Neuronal progenitor cell [1]): inactive

N#Cc1cccc(COc2ccc3c(c2)CN2C(=O)[C@@H](CO)N(C4CCCC4)C(=O)[C@H]2C3)c1
fold change (FC) [2]: 2.36

C[C@@H]1C(=O)N2Cc3cc(OCc4cccc(C#N)c4)ccc3C[C@@H]2C(=O)N1C1CCCC1
fold change (FC) [2]: 2.41

N#Cc1cccc(COc2ccc3c(c2)CN2C(=O)CN(C4CCNCC4)C(=O)[C@H]2C3)c1
fold change (FC) (Neuronal progenitor cell [1]): inactive

N#Cc1cccc(COc2ccc3c(c2)CN2C(=O)CN(CC4CCC4)C(=O)[C@H]2C3)c1
fold change (FC) [2]: 2.12

N#Cc1cccc(CNc2ccc3c(c2)CN2C(=O)CN(C4CCCCC4)C(=O)[C@H]2C3)c1
fold change (FC) [2]: 1.53

N#Cc1csc(COc2ccc3c(c2)CN2C(=O)CN(C4CCCC4)C(=O)[C@H]2C3)c1
fold change (FC) [2]: 1.74

CN(Cc1cccc(C#N)c1)c1ccc2c(c1)CN1C(=O)CN(C3CCCCC3)C(=O)[C@H]1C2
fold change (FC) [2]: 1.67

N#Cc1cccc(COc2ccc3c(c2Br)CN2C(=O)CN(C4CCCC4)C(=O)[C@H]2C3)c1
fold change (FC) [22]: 1.2 | Activity [23]: Non-toxic | Kp [24]: 0.5 | Activity (Neuronal progenitor cell [25]): Dose-dependent effect | Activity [26]: Non-toxic | fold change (FC) [27]: 1.8 | fold change (FC) [2]: 1.9

O=C1[C@H]2Cc3ccc(OCc4cccc(N5CCOCC5)c4)cc3CN2C(=O)CN1C1CCCC1
fold change (FC) [2]: 2.06

O=C1[C@H]2Cc3ccc(OCc4ccc(Cl)cc4)cc3CN2C(=O)CN1C1CCCC1
fold change (FC) [2]: 2.09

O=C1[C@H]2Cc3ccc(OCc4cccc(F)c4)cc3CN2C(=O)CN1C1CCCC1
fold change (FC) [2]: 1.83
